Measurements: patent US20220008425A1, “Pharmaceutical Composition for Treating B-Cell Lymphoma” (FUNDAN UNIVERSITY SHANGHAI CANER CENTER, priority 2018, published 2022)

Experiments:
[1] = system: CD20 and mCRPs (CD46, CD55, CD59) in RCHO-resistant LY8 cells; test: FACS analysis of membrane expression of CD46, CD55, CD59 and CD20; format: cell-based, human
Experimental: (§1) After being washed with PBS, cells were incubated with fluorescein-conjugated antibody for 30 minutes, followed by washing and resuspension of cells in PBS. Flow cytometry analysis was performed on a cytomics FC500 MPL instrument (Beckman Coulter, Inc., Brea, Calif.) and FlowJo software (Ashland, Inc., OR) was used for analysis. Cells were then sorted according to their relative fluorescence intensity by using a MoFlo XDP sorter (Beckman Coulter Inc., Brea, Calif.).

[2] = system: CD20 and mCRPs (CD46, CD55, CD59) in RCHO-resistant NU-DUL-1 cells; test: as above; format: cell-based, human
Experimental: as §1

LY8-RCHO cells = details: 48 hours; for cytotoxicity (induction of cell death), inhibitor used alone: inhibitor alone at increasing concentrations; for reversal of resistance to CHO (cytotoxicity of CHO), inhibitor co-treated with CHO: inhibitor at increasing concentrations with CHO
Experimental: (§2) Further, we constructed LY8 and NU-DUL-1 cells resistant to chemotherapeutic drugs. Briefly, LY8-ORI and NU-DUL-1-ORI cells were treated with doxorubicin (Selleck Chemicals, Houston, Tex.) and vincristine (Selleck Chemicals, Houston, Tex.) at a clinical ratio of 50:1.4 by increasing the concentration. […] These cells were then treated with 2 μg/mL of 4-hydroperoxycyclophosphamide (4-HC) (Santa Cruz Biotechnology, Inc., Santa Cruz, Calif.) every 21 days for 3 cycles. The obtained CHO-resistant cells are referred to as LY8-CHO and NU-DUL-1-CHO, respectively. CHO-resistant cells were treated with doxorubicin, vincristine, and 4-HC every 22 days to maintain drug tolerance to CHO. […] To maintain RCHO resistance, LY8-RCHO cells and NU-DUL-1-RCHO cells were treated with 32 μg/mL of rituximab containing 20% (v/v) of NHS every 22 days, followed by treatment with doxorubicin, vincristine, and 4-HC. After 48 hours of treatment with doxorubicin, vincristine and 4-HC, drug resistance to CHO and RCHO was determined by a series of CCK-8 assays.
(§3) Cells were seeded in a 96-well plate at a density of 1×10^4/100 μL/well. Cells were pretreated with IPI-145, abemaciclib, AZD4547, PF-573228, R788, or saracatinib at increasing concentrations with or without CHO for 48 hours prior to performing CytoTox-Glo™ cytotoxicity assay. We performed cytotoxicity assay by using a CytoTox-Glo™ cytotoxicity assay kit (Promega Inc., Madison, Wis.) according to their instructions. Briefly, 50 μL of CytoTox-Glo™ cytotoxicity assay reagent was added to all wells, mixed by orbital shaking, and then incubated for 15 minutes at room temperature. Luminescence of experimental dead cells was detected with a Synergy HT microplate reader (BioTek, Biotek Winooski, Minn.), wherein 50 μL of lysate was added to all wells, mixed and incubated for 15 minutes at room temperature prior to detection of total luminescence. Cytotoxicity was calculated according to the following formula: Cytotoxicity (%)=Experimental dead cell luminescence/Total luminescence×100%.

NU-DUL-1-RCHO cells = details: 48 hours; for cytotoxicity (induction of cell death), inhibitor used alone: inhibitor alone at increasing concentrations; for reversal of resistance to CHO (cytotoxicity of CHO), inhibitor co-treated with CHO: inhibitor at increasing concentrations with CHO
Experimental: as §2, §3

Row | Compound | membrane expression of CD20 [1] | membrane expression of the other three mCRPs (CD46, CD55, CD59) [1] | membrane expression of CD20 [2] | membrane expression of the other three mCRPs (CD46, CD55, CD59) [2] | cytotoxicity (induction of cell death), inhibitor used alone (LY8-RCHO cells) | reversal of resistance to CHO (cytotoxicity of CHO), inhibitor co-treated with CHO (LY8-RCHO cells) | cytotoxicity (induction of cell death), inhibitor used alone (NU-DUL-1-RCHO cells) | reversal of resistance to CHO (cytotoxicity of CHO), inhibitor co-treated with CHO (NU-DUL-1-RCHO cells)
1 | NC1(c2ccc(-c3nc4ccn5c(=O)[nH]nc5c4cc3-c3ccccc3)cc2)CCC1 [MK-2206] | significantly reduced | the other three mCRPs did not | significantly reduced | the other three mCRPs did not |  |  |  | 
2 | CS(=O)(=O)c1cccc(CNc2nc(Nc3ccc4c(c3)CCC(=O)N4)ncc2C(F)(F)F)c1 [PF-573228] |  |  |  |  | negligible effect on direct induction of cell death | significantly reversed resistance of RCHO-resistant cells to CHO |  | 
3 | COc1cc(Nc2ncc(F)c(Nc3ccc4c(c3)N(COP(=O)(O)O)C(=O)C(C)(C)O4)n2)cc(OC)c1OC [R788] |  |  |  |  | negligible effect on direct induction of cell death | significantly reversed the resistance of RCHO-resistant cells to CHO | negligible effect on direct induction of cell death | significantly reversed the resistance of RCHO-resistant cells to CHO
4 | CN1CCN(CCOc2cc(OC3CCOCC3)c3c(Nc4c(Cl)ccc5c4OCO5)ncnc3c2)CC1 [saracatinib] |  |  |  |  | negligible effect on direct induction of cell death | significantly reversed resistance of RCHO-resistant cells to CHO | negligible effect on direct induction of cell death | significantly reversed resistance of RCHO-resistant cells to CHO
